Measured values published in patent publication US6428816B1, “Carotenoid agent for inhibiting the conversion of epithelial cells to tumors” (Cognis Australia Pty., Ltd., priority 1992, dated 2002).
Entries after “also recorded” stand apart in the source; their conditions may differ.

Tests used:
c-jun = experiment: Northern analysis of c-jun RNA in melanocytes exposed to UV-B; assay type: cell-based, human; settings: for decrease of C-jun induction versus irradiated melanocytes in complete medium (TPA and IBMX) / RNA levels in the absence of the factor: FIG. 9; for decrease of C-jun induction versus irradiated melanocytes in complete medium (TPA and IBMX): medium without the factor (TPA 10 ng/ml or IBMX 0.1 mM) 24 hours, 100 mJ/cm^2 UVB, 1 hour after irradiation; for RNA levels in the absence of the factor: melanocytes not exposed to UVB
Excerpt: Ultra-violet (“UV”) radiation can cause severe damage to cells, including genetic mutations, the promotion of cancer, and other adverse conditions. The potentially harmful effects for UV radiation for humans are mainly due to the UVB spectrum (ie, radiation having a wavelength of between 290 and 320 nanometers) (See: […], Soler N A Staff J S and Mihm M C Jr: “The human sunburn reaction: histologic and biochemical studies” J, Am. […] Another form of UV radiation is called “UVC”. UVC radiation in sunlight typically has a wavelength of the order of 254 nanometers. It is not as biologically relevant as UVB radiation however, because th UVC radiation in sunlight is strongly absorbed by the earth's ozone layer. accordingly, in the present study, we investigated the effects of UVB irradiation by melanocytes, and the changes to those effects by treating those cells with carotenoids. UVC wavelengths were blocked out of the experiments as the cells were incubated in plastic vessels. […] Wavelengths shorter than 280 nm wee cut off by keeping lids on tissue culture dishes. […] Total RNA was isolated by detergent lysis followed by phenol-chloroform extraction and ethanol precipitation. 15 micrograms of RNA was size-fractionated on denaturing formaldehyde/agarose gels and transferred to nylon filters by capillary blotting. […] After hybridization, filters were washed to a stringency of 0.5-0.1X SSC at 60° C. and autoradiographed at -80° C. for three to ten days using Fuji film. Autoradiographs are quantitated by densitometry using the GS-365 software (Hoefer Scientific). […] The c-fos probe was a 1.8 kb Xbo 1/Eco R I fragment from the plasmid BK 28 (Verma, 1988). The 185 probe was isolated by an EcoRI digest and isolation of the 5.6 kb fragment from the plasmid pB (Gonzalez, 1988). […] The 0.05 hour time indicates cells were harvested within 3 minutes following UV-B exposure. A “control” group received precisely the same treatment as the “treated” group, with the exception of being treated with beta-carotene.

normal human melanocytes [1] = experiment: DNA synthesis by tritiated thymidine incorporation in normal human melanocytes; assay type: cell-based; settings: for effect on DNA synthesis (percent tritiated thymidine incorporation): no UV
Description: FIGS. 1 and 5 refer to “Percent Tritiated Thymidine Incorporation” which is a measure of DNA synthesis activity.
(§1) Human neonatal foreskins were placed in 0.25% trypsin at 4° C. overnight. Following this incubation, the tissue was scraped to recover the melanocytes. The melanocytes were cultured in MCDB 151 (Sigma) medium containing 2% fetal calf serum, 0.3% bovine pituitary extract (Clonetics Corp.), 10 nanograms/ml TPA, 2 mM CaCl2, 5 micrograms/ml insulin and 0.1 mM IBMX (Sigma).
(§2) Cells were harvested with 0.25% trypsin and counted on a Coulter Counter (Coulter Instruments). Viability was determined by trypan blue exclusion. DNA synthesis was measured by labelling with (methyl-^3H)-thymidine (2.5 mCi/ml, 20 Ci/mmol, DuPont-New England Nuclear) added to the medium during the last 4 hours of incubation. Melanocytes were harvested using a Ph.D. cell harvester (Cambridge Research Inc.). the amount of radioactivity incorporated was determined by liquid scintillation counting (LS5000TD. Beckman Instruments).
(§3) Normal human melanocytes were seeded into the appropriate vessel (6 well plate, 96 well plate, 75 cm or 175 cm flask) and allowed to grow to 50-60% confluency. […] The 0.05 hour time indicates cells were harvested within 3 minutes following UV-B exposure.

normal human melanocytes [2] = settings: FIG. 2; 500 mJ/cm^2 UV-B; up to 24 hours after irradiation
Description: as §1, §2, §3

c-fos = experiment: Northern analysis of c-fos RNA in melanocytes exposed to UV-B; assay type: cell-based, human
Description: as §3

NF Kappa B = experiment: Gel mobility shift assay of NF Kappa B DNA binding activity in nuclear extracts of UV-B irradiated melanocytes; assay type: cell-based, human
Description: In summary, gel mobility shift assay using a NF Kappa B consensus sequence was performed to determine DNA binding activity of nuclear extracts from four normal Caucasian melanocyte (NCM) lines.
Cells were grown to approximately 50-60% confluency and treated as described in the experimental protocol described in section (i) below. The cells were allowed to swell in hypotonic buffer (10 mM HEPES, pH 7.8, 0.1 mM EDTA, 10 mM KCC, 1 mM DTT. PMSF for 15 minutes on ice). Cytosolic protein fraction was obtained after the addition of Nonider P-40 to a final concentration of 0.5% and separation from the nuclei by centrifugation (500×g. for 5 minutes). Nuclear proteins were extracted from the remaining pellet by dialysis with hypertonic buffer ([…], pH 7.9, 350 mM NaCl, 1 Mm DTT, 1 mM PMSF) for 2 hours at 10° C. Isolated nuclear protein was frozen and stored at −80° C. Quantitation was calculated from optical density readings of 230, 260 and 320 wavelengths.
Five microgram samples of each extract were incubated with 10,000 cpm of a ^32p-labelled consensus oligonucleotide of NF Kappa B. Following a 1 hour incubation, samples were electrophoresed in a low ionic strength polyacrylamide gel. Quantitation of protein; DNA complexes was accomplished by densitometry.
as §3

[3] = FIG. 6, 1 ug/ml for 24 hours, then 100 or 500 mJ/cm^2 UV-B, four melanocyte lines

| Structure (SMILES) | decrease of C-jun induction versus irradiated melanocytes in complete medium (TPA and IBMX) (c-jun) | RNA levels in the absence of the factor (c-jun) | effect on DNA synthesis (percent tritiated thymidine incorporation) (normal human melanocytes [1]; FIG. 1, highest beta-carotene dose, 24 hours incubation) | effect on DNA synthesis (percent tritiated thymidine incorporation) (normal human melanocytes [1]; FIG. 1, lower beta-carotene doses, 24 hours incubation) | effect on DNA synthesis at the chosen pre-treatment dose (normal human melanocytes [1]; FIG. 1, pre-treatment dose, 1.0 microgram/ml or 10 μg/ml, 24 hours incubation) | effect of pre-treatment on DNA synthesis after UV-B (normal human melanocytes [1]; FIG. 4, 4 hours after irradiation, 400 mJ/cm^2 of UV-B) | effect of pre-treatment on DNA synthesis (tritiated thymidine incorporation) after UV-B (normal human melanocytes [1]; FIG. 4, 24 hours following 400 mJ/cm^2 of UV-B) | persistence of the viability increase over the time course (normal human melanocytes [2]) | effect on induction of c-fos by UV-B (c-fos; FIG. 3, 500 mJ/cm^2 UV-B, beta-carotene pre-treatment) | effect on UVB-induced C-fos expression (c-fos; [3]) | effect on induction of c-jun by UV-B (c-jun; FIG. 3, 24 hours following 500 mJ/cm^2 UV-B irradiation) | increase of c-jun expression by beta-carotene (c-jun; FIG. 3, four hours following 500 mJ/cm^2 UV-B irradiation) | effect on UVB-induced C-jun expression (c-jun; [3]) | effect on NF kappa B DNA binding activity (NF Kappa B; FIG. 7, 100 mJ/cm^2 UV-B) | inhibition at 1 µg/mL (NF Kappa B; Homo sapiens, Melanocyte, light or radiation study, FIG. 8, 500 mJ/cm^2 UV-B, first hour following irradiation, 1.0 ug/ml pre-treatment 24 hours) | protective effect of pre-treatment (NF Kappa B complex) (NF Kappa B; one hour following UVB irradiation at 500 mJ/cm^2, p value less than 0.05, Student's t-test) |
| --- | --- | --- | --- | --- | --- | --- | --- | --- | --- | --- | --- | --- | --- | --- | --- | --- |
| CC(C)Cn1c(=O)n(C)c(=O)c2[nH]cnc21 [IBMX, 3-Isobutyl 1-Methyl Xanthine] | approximately 50% | unaffected | – | – | – | – | – | – | – | – | – | – | – | – | – | – |
| CCCCCCCCCCCCCC(=O)O[C@@H]1[C@@H](C)[C@@]2(O)[C@@H](C=C(CO)C[C@]3(O)C(=O)C(C)=C[C@@H]23)[C@H]2C(C)(C)[C@]12OC(C)=O [TPA, O-Tetradecanoylphorbol 13-acetate] | approximately 50% | unaffected | – | – | – | – | – | – | – | – | – | – | – | – | – | – |
| CC1=C(/C=C/C(C)=C/C=C/C(C)=C/C=C/C=C(C)/C=C/C=C(C)/C=C/C2=C(C)CCCC2(C)C)C(C)(C)CCC1 [beta-carotene] | – | – | largely inhibited | little or no effect | minimal effect | not seen | increased | remained for the duration of the time course | essentially blocked | did not alter | completely blocked | 11.1 fold | only a slight effect | slightly decreased; also recorded: moderate effect | > 50% | statistically significant protective effect |
